Values of other authors as cited in patent publication US20080020052A1, “Vascular Embolus Of Paclitaxel-Sodium Alginate Microsphere And Its Preparation” (priority 2004, published 2008).

CC(=O)O[C@H]1C(=O)[C@@]2(C)[C@H]([C@H](OC(=O)c3ccccc3)[C@]3(O)C[C@H](OC(=O)[C@H](O)[C@@H](NC(=O)c4ccccc4)c4ccccc4)C(C)=C1C3(C)C)[C@]1(OC(C)=O)CO[C@@H]1C[C@@H]2O [Paclitaxel, paclitaxel]
plasma and protein binding ratio: 89-98%
